The structures appear in SMILES notation. Read-outs that look alike come from different tables or passages of the source. Some results are limits rather than exact numbers.

This is an account of results in US8986994B2, “Substituted pyridines and pyrimidines” (Technische Universitaet Wien, priority 2009, dated 2015).

In data set [1] the test system is Nkx2.5 (C2C12 cells). The data set can be described thus: Nkx2.5 luciferase reporter assay in C2C12 cells. Format: cell-based. To be noted: Mus musculus, read-out: Nkx2.5 activity. (In general: A reporter such as luciferase makes a cellular process visible.)
Data set [2] has as its system TOPflash (C2C12 cells). The data set can be described thus: TOPflash luciferase reporter assay in C2C12 cells. Format: cell-based. To be noted: Mus musculus, read-out: TOPflash activity.
For data set [3], the system named is TOPflash (P19 cells). The data set can be described thus: TOPflash luciferase reporter assay in P19 cells. In kind it is cell-based. To be noted: Mus musculus, read-out: TOPflash activity.
The subject of data set [4] is ANF (P19 cells). The data set can be described thus: ANF promoter luciferase reporter assay in P19 cells. In kind it is cell-based, mouse. To be noted: Mus musculus, read-out: ANF activity.
The test system of data set [5] is Nkx2.5 (P19 cells). The data set can be described thus: Nkx2.5 luciferase reporter assay in P19 cells. Format: cell-based. To be noted: Mus musculus, read-out: Nkx2.5 activity.
The subject of data set [6] is ANF (C2C12 cells). The data set can be described thus: ANF promoter luciferase reporter assay in C2C12 cells. In kind it is cell-based, mouse. To be noted: for fold induction at 1 µM: Mus musculus, read-out: ANF activity; for luciferase signal in all three reporter assays: ANF, TOPflash and Nkx2.5 reporter assays together.
Where [7] appears, read: 192 h, C2C12 cells, 1 μM for 8 days, luciferase signal vs control (untreated cells).
Where [8] appears, read: 192 h, P19 cells, 1 μM for 8 days, luciferase signal vs control (untreated cells).

The melting point is the temperature of the solid-liquid transition. As for `CNc1cc(Nc2ccc(OC)cc2)ncn1` [example 11, N^4-(4-Methoxyphenyl)-N^6-methylpyrimidine-4,6-diamine], the melting point is 174 to 182 °C. Also, in data set [1] (setting [7]), the fold induction at 1 µM was in the range of 1.3 to 2. Besides, the fold induction at 1 µM in data set [2] (setting [7]) was 1.3 to 2. The fold induction at 1 µM in data set [3] (setting [8]) is above 2. Further, in data set [4] (setting [8]), the fold induction at 1 µM was below 1.3. In data set [5] (setting [8]), the fold induction at 1 µM was below 1.3. The fold induction at 1 µM in data set [6] (setting [7]) was below 1.3.
In the case of `OCCNc1cc(NC2CCCCC2)ncn1` [example 39, 2-(6-(Cyclohexylamino)pyrimidin-4-ylamino)ethan-1-ol], in data set [4] (P19, 192 h), the fold induction at 1 µM is below 1.3.
The same measure, in the same setting: with `COc1ccc(Nc2cc(NC34CC5CC(CC(C5)C3)C4)ncn2)cc1` [example 21, N^4-Adamant-1-yl-N^6-(4-methoxyphenyl)pyrimidine-4,6-diamine] the figure was above 2.
With `COc1ccc(Nc2cc(N3CCOCC3)ncn2)cc1` [example 15, N-(4-Methoxyphenyl)-6-morpholinopyrimidin-4-amine], the fold induction at 1 µM in data set [4] (setting [8]) is above 2.
Regarding `O=[N+]([O-])c1ccc(Nc2cc(NCCO)ncn2)cc1` [example 30, 2-(6-(4-Nitrophenylamino)pyrimidin-4-ylamino)ethan-1-ol], the fold induction at 1 µM in data set [4] (setting [8]) and in data set [5] (setting [8]) was below 1.3 throughout.
Turning to `COc1ccc(Nc2cc(NC3CCCC3)ncn2)cc1` [example 18, N^4-Cyclopentyl-N^6-(4-methoxyphenyl)pyrimidine-4,6-diamine], the fold induction at 1 µM in data set [4] (P19, 192 h) is above 2.
Still for that read-out and setting: with `COCCNc1cc(Nc2ccc(OC)cc2)ncn1` [example 13, N^4-(2-Methoxyethyl)-N^6-(4-methoxyphenyl)pyrimidine-4,6-diamine] the figure was 1.3 to 2.
`OCCNc1cc(Nc2ccc(Nc3ccccc3)cc2)ncn1` [example 7, 2-(6-(4-(Phenylamino)phenylamino)pyrimidin-4-ylamino)ethan-1-ol] yielded a melting point of 154 to 155 °C. Further, in data set [1] (setting [7]), the fold induction at 1 µM was below 1.3. For the same compound, in data set [2] (setting [7]), the fold induction at 1 µM is below 1.3. Further, the fold induction at 1 µM in data set [3] (setting [8]) is below 1.3. Besides, the fold induction at 1 µM in data set [4] (setting [8]) was below 1.3. Also, the fold induction at 1 µM in data set [5] (setting [8]) is below 1.3. Also, the fold induction at 1 µM in data set [6] (setting [7]) was below 1.3.
For `OCCNc1cccc(Nc2ccc(Oc3ccccc3)cc2)n1` [example 44, 2-(6-(4-Phenoxyphenylamino)pyridin-2-ylamino)ethan-1-ol], the fold induction at 1 µM in data set [1] (setting [7]) is 1.3 to 2; in data set [2] (setting [7]) it was below 1.3; in data set [3] (setting [8]), below 1.3; in data set [4] (setting [8]) it was 1.3 to 2; in data set [5] (setting [8]) it was below 1.3; in data set [6] (setting [7]) it was below 1.3.
Regarding `CCOC(=O)c1ccc(Nc2cc(NCCO)ncn2)cc1` [example 34, Ethyl 4-(6-(2-hydroxyethylamino)pyrimidin-4-ylamino)benzoate], the fold induction at 1 µM in data set [4] (setting [8]) and in data set [5] (setting [8]) was below 1.3 each time.
`COc1ccc(Nc2cccc(NCCCO)n2)cc1` [example 43, 3-(6-(4-Methoxyphenylamino)pyridin-2-ylamino)propan-1-ol]: the fold induction at 1 µM in data set [1] (setting [7]) was 1.3 to 2; in data set [2] (setting [7]), 1.3 to 2; in data set [3] (setting [8]), 1.3 to 2; in data set [4] (setting [8]), 1.3 to 2; in data set [5] (setting [8]), below 1.3; in data set [6] (setting [7]), 1.3 to 2. Moreover, the “luciferase signal in all three reporter assays” value (from here on “luciferase signal”) in data set [6] (C2C12 cells, 1 μM for 8 days) is “increase in the luciferase signal in all three reporter assays”.
`CCNc1cc(Nc2ccc(OC)cc2)ncn1` [example 10, N^4-Ethyl-N^6-(4-methoxyphenyl)pyrimidine-4,6-diamine] showed a melting point of 190 to 193 °C. Besides, in data set [1] (C2C12, 192 h), the fold induction at 1 µM was in the range of 1.3 to 2. For the same compound, in data set [2] (C2C12, 192 h), the fold induction at 1 µM lay in the range of 1.3 to 2. Moreover, the fold induction at 1 µM in data set [3] (P19, 192 h) was below 1.3. In data set [4] (P19, 192 h), the fold induction at 1 µM is 1.3 to 2. Moreover, in data set [5] (P19, 192 h), the fold induction at 1 µM is below 1.3. The “luciferase signal” value in data set [6] (C2C12 cells, 1 μM for 8 days) is “increase in the luciferase signal in all three reporter assays”. In addition, the fold induction at 1 µM in data set [6] (C2C12, 192 h) is 1.3 to 2.
On to `COc1ccc(Nc2cc(NC(C)(C)C)ncn2)cc1` [example 20, N^4-tert-Butyl-N^6-(4-methoxyphenyl)pyrimidine-4,6-diamine], for which the fold induction at 1 µM in data set [4] (P19, 192 h) was above 2.
Regarding `COc1ccc(Nc2cc(NC(C)C)ncn2)cc1` [example 12, N^4-(2-Propyl)-N^6-(4-methoxyphenyl)pyrimidine-4,6-diamine], the fold induction at 1 µM in data set [1] (C2C12, 192 h) was 1.3 to 2; in data set [2] (C2C12, 192 h) it was 1.3 to 2; in data set [3] (P19, 192 h) it was below 1.3; in data set [4] (P19, 192 h) it was below 1.3; in data set [5] (P19, 192 h) it was 1.3 to 2; in data set [6] (C2C12, 192 h) it was 1.3 to 2. The “luciferase signal” value in data set [6] (C2C12 cells, 1 μM for 8 days) is “increase in the luciferase signal in all three reporter assays”.
`CCC(C)Nc1cc(Nc2ccc(OC)cc2)ncn1` (centres unmarked) [example 19, N^4-sec-Butyl-N^6-(4-methoxyphenyl)pyrimidine-4,6-diamine]: the fold induction at 1 µM in data set [4] (setting [8]) and in data set [5] (setting [8]) was below 1.3 each time.
With `OCCNc1cc(Nc2ccc(Cl)cc2)ncn1` [example 24, 2-(6-(4-Chlorophenylamino)pyrimidin-4-ylamino)ethan-1-ol], the melting point is 183 °C. Besides, in data set [4] (setting [8]), the fold induction at 1 µM was in the range of 1.3 to 2. Further, the fold induction at 1 µM in data set [5] (setting [8]) lay within 1.3 to 2.
For `COc1ccc(Nc2cc(N(C)CCO)ncn2)cc1` [example 16, 2-((6-(4-Methoxyphenylamino)pyrimidin-4-yl)(methyl)amino)ethan-1-ol], in data set [4] (P19, 192 h), the fold induction at 1 µM is above 2.
Regarding `OCCNc1cc(Nc2cccc(Cl)c2)ncn1` [example 25, 2-(6-(3-Chlorophenylamino)pyrimidin-4-ylamino)ethan-1-ol], the figures for the fold induction at 1 µM in data set [4] (setting [8]) and in data set [5] (setting [8]) were above 2 and 1.3 to 2, respectively.
With `COc1cccc(Nc2cc(NCCO)ncn2)c1` [example 22, 2-(6-(3-Methoxyphenylamino)pyrimidin-4-ylamino)ethan-1-ol], the fold induction at 1 µM was below 1.3 in data set [1] (setting [7]); 1.3 to 2 in data set [2] (setting [7]); below 1.3 in data set [3] (setting [8]); below 1.3 in data set [4] (setting [8]); below 1.3 in data set [5] (setting [8]); 1.3 to 2 in data set [6] (setting [7]).
Consider `CCCCNc1cc(Nc2ccc(OC)cc2)ncn1` [example 17, N^4-Butyl-N^6-(4-methoxyphenyl)pyrimidine-4,6-diamine], for which, in data set [4] (setting [8]), the fold induction at 1 µM is above 2.
`COc1ccc(Nc2cc(NCC(=O)O)ncn2)cc1` [example 14, 2-(6-(4-Methoxyphenylamino)pyrimidin-4-ylamino)acetic acid]: in data set [4] (P19, 192 h), the fold induction at 1 µM is above 2.
Turning to `OCCNc1cc(Nc2cccc(F)c2)ncn1` [example 32, 2-(6-(3-Fluorophenylamino)pyrimidin-4-ylamino)ethan-1-ol], the fold induction at 1 µM in data set [4] (setting [8]) and in data set [5] (setting [8]) was below 1.3 each time.
In the case of `COc1cccc(Nc2cc(NC3CCCCC3)ncn2)c1` [example 37, N^4-Cyclohexyl-N^6-(3-methoxyphenyl)pyrimidine-4,6-diamine], the fold induction at 1 µM is 1.3 to 2 in data set [4] (P19, 192 h) and above 2 in data set [5] (P19, 192 h).
For the compound `Clc1cccc(Nc2cc(NC3CCCCC3)ncn2)c1` [example 26, N^4-(3-Chlorophenyl)-N^6-cyclohexylpyrimidine-4,6-diamine], the fold induction at 1 µM in data set [4] (P19, 192 h) is above 2; in data set [5] (P19, 192 h), above 2.
On to `OCCCNc1cccc(Nc2ccc(Oc3ccccc3)cc2)n1` [example 45, 3-(6-(4-Phenoxyphenylamino)pyridin-2-ylamino)propan-1-ol], for which the fold induction at 1 µM was below 1.3 in data set [1] (setting [7]); 1.3 to 2 in data set [2] (setting [7]); below 1.3 in data set [3] (setting [8]); below 1.3 in data set [4] (setting [8]); below 1.3 in data set [5] (setting [8]); below 1.3 in data set [6] (setting [7]).
`COc1ccc(N(C)c2cc(NCCO)ncn2)cc1` [example 38, 2-(6-((4-Methoxyphenyl)(methyl)amino)pyrimidin-4-ylamino)ethan-1-ol]: the fold induction at 1 µM in data set [4] (setting [8]) is above 2.
As for `OCCNc1cc(Nc2ccccc2)ncn1` [example 23, 2-(6-(Phenylamino)pyrimidin-4-ylamino)ethan-1-ol], the fold induction at 1 µM in data set [4] (setting [8]) and in data set [5] (setting [8]) was below 1.3 each time.
As to `COCCNc1cc(Nc2cccc(Cl)c2)ncn1` [example 27, N^4-(3-Chlorophenyl)-N^6-(2-methoxyethyl)pyrimidine-4,6-diamine], the fold induction at 1 µM in data set [4] (P19, 192 h) was below 1.3; in data set [5] (P19, 192 h), below 1.3.
With `OCCNc1cc(Nc2cccc(Br)c2)ncn1` [example 33, 2-(6-(3-Bromophenylamino)pyrimidin-4-ylamino)ethan-1-ol], the values for the fold induction at 1 µM in data set [4] (setting [8]) and in data set [5] (setting [8]) were below 1.3 and 1.3 to 2, respectively.
Consider `OCCCNc1cc(Nc2cccc(Cl)c2)ncn1` [example 31, 3-(6-(3-Chlorophenylamino)pyrimidin-4-ylamino)propan-1-ol], for which the fold induction at 1 µM in data set [4] (P19, 192 h) is 1.3 to 2; in data set [5] (P19, 192 h), 1.3 to 2.
